For 36 compounds, inhibition in vivo and IC50 results are on record in US6143764A, “Quinoline and quinazoline derivatives inhibiting platelet-derived growth factor receptor autophosphorylation and pharmaceutical compositions containing the same” (priority 1995, dated 2000).

Assay [1] relates to human glioma (GLO7). The assay is described as follows: Antitumor effect of the compounds against human glioma (GLO7), nude mice xenograft. It counts as in vivo. The settings on record: Mus musculus, po, 216 h, read-out: Tumor growth inhibition rate (TGIR). Background: Xenograft models place foreign cells or tissue in a host animal.
Procedure: Analogously to 2, human glioma cells, GLO7 (obtained from the Central Institute for Experimental Animals), was transplanted into nude mice. When the tumor had grown to a volume of about 100 mm^3, the nude mice were divided into several groups of 4 animals so as to equalize the average tumor volumes of each group. The test drug was administered orally to animals in experimental groups once a day for 9 consecutive days at 50 mg/kg, and the vehicle was administered to control animals. The tumor growth inhibition rate (TGIR, %) was calculated from the equation: TGIR=(1-Tx/Cx)×100, in which Cx is the tumor volume in the control mice and Tx is the tumor volume in the drug-treated mice, on day X, when the initial tumor volume at the time treatment was commenced is set 1.
The target of assay [2] is T1, PDGF receptor (Rattus norvegicus, UniProt Q05030).
T1 construct: cultured rat mesangial cells which are known to have the PDGF receptor; endogenous in cells; host or cells: primary mesangial cells cultured from glomeruli of Wistar-Kyoto rats (Charles River Japan), more than 5 passages
The assay is described as follows: PDGF receptor autophosphorylation inhibition in cultured rat mesangial cells. Conditions: PDGF-BB 50 ng/ml. It counts as cell-based. How it is done:
1. Cultivation of rat mesangial cells
The glomerulus-derived adhesive cells were subcultured several times to obtain mesangial cells. The mesangial cells subcultured more than 5 passages were used for the assay.
2.Evaluation of PDGF receptor autophosphorylation inhibition
The mesangial cells were seeded in 24-well flat-bottom microtiter plates and then cultured in the medium containing 10% FCS for 2 days. When the cells were grown to about 3×10^4 cells per well, the medium was changed to the medium containing 0.5% FCS, the cultivation was continued for another 3 days, and then cell growth was arrested. The culture medium was removed, the adhered cells were washed with 500 μl of the medium, and 250 μl of the medium containing 0.1% bovine serum albumin (hereinafter abbreviated to BSA) was then added. A test drug dissolved in 1.38 μl of dimethyl sulfoxide (hereinafter abbreviated to DMSO) was added to this culture medium, and the admixture was incubated at 37° C. for 1 hour. Recombinant human platelet-derived growth factor BB chain (hereinafter abbreviated to PDGF-BB) was dissolved in the medium containing 0.1% BSA, 25 μl per well of the solution was added at final 50 ng/ml, and the incubation was continued at 37° C. for 10 minutes. […] The cells were allowed to stand at 4° C. for 30 minutes for lysis, and the resulting solution was thoroughly admixed with an equal amount of Tris-buffered physiological saline containing 1% sodium dodecyl sulfate (hereinafter abbreviated to SDS). […] After the electrophoresis, proteins in the gel were electrically transferred to a PVDF filter, which was then subjected to Western blotting using monoclonal antibodies against phosphotyrosine. Bands of PDGF receptor (molecular weight: about 180 Kda) which were autophosphorylated due to the addition of PDGF-BB were quantitated by a densitometer. Autophosphorylation rates for individual wells with drugs were calculated by setting measurements for PDGF receptor autophosphorylation in the wells without drugs in the presence and absence of PDGF-BB as 100% and 0%, respectively.

[3] abbreviates: nude mice, 50 mg/kg orally once a day, 9 days.

Read-outs that look alike come from different tables or passages of the source.

T1 sequence (Q05030 32-1097): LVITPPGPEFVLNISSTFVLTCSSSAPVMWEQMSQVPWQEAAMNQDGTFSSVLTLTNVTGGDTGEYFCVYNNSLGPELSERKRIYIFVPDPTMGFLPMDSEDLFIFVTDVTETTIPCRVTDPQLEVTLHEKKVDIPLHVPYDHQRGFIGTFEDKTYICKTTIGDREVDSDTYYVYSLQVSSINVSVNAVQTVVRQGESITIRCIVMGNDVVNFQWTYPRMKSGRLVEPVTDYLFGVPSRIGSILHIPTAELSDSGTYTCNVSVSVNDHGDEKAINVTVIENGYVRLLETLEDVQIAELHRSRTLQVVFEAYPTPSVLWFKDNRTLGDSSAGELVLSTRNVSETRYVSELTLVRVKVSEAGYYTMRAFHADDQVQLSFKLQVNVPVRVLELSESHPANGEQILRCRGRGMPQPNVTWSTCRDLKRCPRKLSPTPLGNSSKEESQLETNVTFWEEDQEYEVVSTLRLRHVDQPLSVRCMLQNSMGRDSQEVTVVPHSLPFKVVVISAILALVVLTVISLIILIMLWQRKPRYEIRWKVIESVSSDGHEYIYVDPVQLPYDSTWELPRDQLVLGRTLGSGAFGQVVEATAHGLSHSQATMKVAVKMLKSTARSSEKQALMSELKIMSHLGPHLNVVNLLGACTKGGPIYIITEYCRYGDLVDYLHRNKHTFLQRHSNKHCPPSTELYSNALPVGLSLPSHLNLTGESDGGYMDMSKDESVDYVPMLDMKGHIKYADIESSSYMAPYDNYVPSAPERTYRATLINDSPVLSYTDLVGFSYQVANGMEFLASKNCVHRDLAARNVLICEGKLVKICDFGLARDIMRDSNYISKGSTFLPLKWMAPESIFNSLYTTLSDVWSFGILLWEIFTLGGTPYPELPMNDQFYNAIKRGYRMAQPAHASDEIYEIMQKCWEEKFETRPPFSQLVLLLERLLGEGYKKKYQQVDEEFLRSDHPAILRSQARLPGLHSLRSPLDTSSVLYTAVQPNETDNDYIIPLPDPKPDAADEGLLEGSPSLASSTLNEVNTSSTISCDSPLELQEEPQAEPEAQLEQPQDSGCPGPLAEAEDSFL

Take `COc1cc2nccc(Oc3ccc(NC(=O)Nc4ccc(Cl)cc4)cc3)c2cc1OC` [Compound 165, N-(4-Chlorophenyl)-N'-{4-[(6,7-dimethoxy-4-quinolyl)oxy]phenyl}urea]: the inhibition in vivo at 50 mg/kg in assay [1] was determined as 70%.
On to `COc1cc2nccc(Oc3ccc(NC(=O)Nc4ccccc4N(C)C)cc3)c2cc1OC` [Compound 191], for which the inhibition in vivo at 50 mg/kg in assay [1] (setting [3]) is 50%.
With `COc1cc2nccc(Oc3ccc(NC(=O)Nc4ccc(Cl)cc4Cl)cc3)c2cc1OC` [Compound 229, N-(2,4-Dichlorophenyl)-N'-{4-[(6,7-dimethoxy-4-quinolyl)oxy]phenyl}urea], the inhibition in vivo at 50 mg/kg in assay [1] turned out to be 81%.
Regarding `COc1cc2nccc(Oc3ccc(NC(=O)Nc4cc(Cl)ccc4Cl)cc3)c2cc1OC` [Compound 235], the inhibition in vivo at 50 mg/kg in assay [1] turned out to be 78%.
Same read-out and setting: the result for `COc1cc2nccc(Oc3ccc(NC(=O)Nc4ccc(Cl)c(Cl)c4)cc3)c2cc1OC` [Compound 236, N-(3,4-Dichlorophenyl)-N'-[4-[(6,7-dimethoxy-4-quinolyl)oxy]phenyl}urea] reads 84%; that for `COc1cc2nccc(Oc3ccc(NC(=O)Nc4cc(Cl)cc(Cl)c4)cc3)c2cc1OC` [Compound 237, N-(3,5-Dichlorophenyl)-N'-{4-[(6,7-dimethoxy-4-quinolyl)oxy]phenyl}urea], 74%.
As a reminder, the IC50 is the concentration that inhibits the measured activity by half. A high value points to lower potency. With `COc1cc2nccc(Oc3ccc(NC(=O)NCc4ccccn4)cc3)c2cc1OC` [Compound 247, N-(4-[(6,7-Dimethoxy-4-quinolyl)oxy]phenyl)-N'-(2-pyridylmethyl)urea], 9 nM corresponded to half-maximal inhibition in assay [2] (IC50).
On to `COc1cc2nccc(Oc3ccc(NC(=O)NCc4ccc(C(C)(C)C)cc4)cc3)c2cc1OC` [Compound 248, N-[(4-tert-Butylphenyl)methyl]-N'-{4-[(6,7-dimethoxy-4-quinolyl)oxy]phenyl}urea], for which, in assay [2], the midpoint of inhibition, the IC50, lay at 63 nM.
The compound `COc1cc2nccc(Oc3ccc(NC(=O)NCc4cccnc4)cc3)c2cc1OC` [Compound 249, N-(4-[(6,7-Dimethoxy-4-quinolyl)oxy]phenyl)-N'-(3-pyridylmethyl) urea] returned a concentration for half-maximal inhibition (IC50) in assay [2] of 41 nM.
Same read-out and setting: as for `COc1cc2nccc(Oc3ccc(NC(=O)NCc4ccncc4)cc3)c2cc1OC` [Compound 250], the figure is 17 nM; as for `COc1cc2nccc(Oc3ccc(NC(=O)NCc4ccc(N(C)C)cc4)cc3)c2cc1OC` [Compound 251, N-{4-[(6,7-Dimethoxy-4-quinolyl)oxy]phenyl}-N'-[(4-dimethylaminophenyl)methyl]urea], 36 nM; as for `COc1cc2nccc(Oc3ccc(NC(=O)NC4CCCCC4)cc3)c2cc1OC` [Compound 253, N-(Cyclohexyl)-N'-{4-[(6,7-dimethoxy-4-quinolyl)oxy]phenyl}urea], 7 nM.
As to `COc1cc2nccc(Oc3ccc(NC(=O)Nc4c(F)cc(F)cc4F)cc3)c2cc1OC` [Compound 256, N-(2,4,6-Trifluorophenyl)-N'-{4-[(6,7-dimethoxy-4-quinolyl)oxy]phenyl}urea], the IC50 in assay [2] worked out at 4 nM.
As for `COc1cc2nccc(Oc3ccc(NC(=O)Nc4ccc(F)c(F)c4F)cc3)c2cc1OC` [Compound 257, N-(2,3,4-Trifluorophenyl)-N'-{4-[(6,7-dimethoxy-4-quinolyl)oxy]phenyl}urea], in assay [2], inhibition was half-maximal at 7 nM (IC50).
Still for that read-out and setting: as for `COc1ccc(OC)c(NC(=O)Nc2ccc(Oc3ccnc4cc(OC)c(OC)cc34)cc2)c1` [Compound 258, N-(2,5-Dimethoxyphenyl)-N'-{4-[(6,7-dimethoxy-4-quinolyl)oxy]phenyl}urea], the figure is 7 nM; as for `COc1cc(NC(=O)Nc2ccc(Oc3ccnc4cc(OC)c(OC)cc34)cc2)cc(OC)c1` [Compound 259, N-(3,5-Dimethoxyphenyl)-N'-{4-[(6,7-dimethoxy-4-quinolyl)oxy]phenyl}urea], 5 nM; as for `COc1cc2nccc(Oc3ccc(NC(=O)Nc4c(F)cccc4F)cc3)c2cc1OC` [Compound 263, N-(2,6-Difluorophenyl)-N'-{4-[(6,7-dimethoxy-4-quinolyl)oxy]phenyl}urea], 4 nM.
Take `COc1cc2nccc(Oc3ccc(NC(=O)Nc4cc(C(F)(F)F)ccc4C(F)(F)F)cc3)c2cc1OC` [Compound 264, N-(2,5-Bis(trifluoromethyl)phenyl]-N'-{4-[(6,7-dimethoxy-4-quinolyl)oxy]phenyl}urea]: the inhibition in vivo at 50 mg/kg in assay [1] (setting [3]) turned out to be 63%.
Consider `COc1ccc(NC(=O)Nc2ccc(Oc3ccnc4cc(OC)c(OC)cc34)cc2)c(OC)c1` [Compound 265, N-(2,4-Dimethoxyphenyl)-N'-{4-[(6,7-dimethoxy-4-quinolyl)oxy]phenyl}urea], for which the IC50 in assay [2] was found to be 5 nM.
In the case of `COc1cc2nccc(Oc3ccc(NC(=O)Nc4ccccc4Cl)cc3)c2cc1OC` [Compound 266, N-(2-Chlorophenyl)-N'-{4-[(6,7-dimethoxy-4-quinolyl)oxy]phenyl}urea], half-maximal inhibition in assay [2] (IC50) was put at 1 nM.
As to `COc1cc2nccc(Oc3ccc(NC(=O)Nc4cccc(OC)c4OC)cc3)c2cc1OC` [Compound 268, N-(2,3-Dimethoxyphenyl)-N'-{4-[(6,7-dimethoxy-4-quinolyl)oxy]phenyl}urea], in assay [2], the IC50 came to 7 nM.
Turning to `COc1cc2nccc(Oc3ccc(NC(=O)Nc4ccc(O)cc4)cc3)c2cc1OC` [Compound 269, N-(4-Hydroxyphenyl)-N'-{4-[(6,7-dimethoxy-4-quinolyl)oxy]phenyl}urea], the IC50 in assay [2] was determined as 8 nM.
Turning to `COc1cc2nccc(Oc3ccc(NC(=O)Nc4ccc(OC(C)=O)cc4)cc3)c2cc1OC` [Compound 270, N-(4-Acetoxyphenyl)-N'-{4-[(6,7-dimethoxy-4-quinolyl)oxy]phenyl}urea], the IC50 in assay [2] was found to be 6 nM.
Still for that read-out and setting: the result for `COc1cc2nccc(Oc3ccc(NC(=O)Nc4cc(OC)c(OC)c(OC)c4)cc3)c2cc1OC` [Compound 271, N-(3,4,5-Trimethoxyphenyl)-N'-{4-[(6,7-dimethoxy-4-quinolyl)oxy]phenyl}urea] reads 4 nM; that for `COc1cc2nccc(Oc3ccc(NC(=O)Nc4cc(F)ccc4F)cc3)c2cc1OC` [Compound 273, N-(2,5-Difluorophenyl)-N'-{4-[(6,7-dimethoxy-4-quinolyl)oxy]phenyl}urea], 5 nM; that for `COc1cc2nccc(Oc3ccc(NC(=O)Nc4ccc(N)cc4Cl)cc3)c2cc1OC` [Compound 274, N-(4-Amino-2-chlorophenyl)-N'-{4-[(6,7-dimethoxy-4-quinolyl)oxy]phenyl}urea], 36 nM.
As for `COc1cc2nccc(Oc3ccc(NC(=O)Nc4ccccc4SC)cc3)c2cc1OC` [Compound 276, N-(2-Methylthiophenyl)-N'-{4-[(6,7-dimethoxy-4-quinolyl)oxy]phenyl}urea], it took 5 nM to reach half-maximal inhibition in assay [2] (IC50).
In assay [2], `COc1cc2nccc(Oc3ccc(NC(=O)NCCCCl)cc3)c2cc1OC` [Compound 278, N-(3-Chloropropyl)-N'-{4-[(6,7-dimethoxy-4-quinolyl)oxy]phenyl}urea] gave an IC50 of 3 nM.
Take `COc1cc2nccc(Oc3ccc(NC(=O)Nc4ccc(Oc5ccc(F)cc5)nc4)cc3)c2cc1OC` [Compound 279, N-{5-[2-(4-fluoro)phenoxy]-pyridyl}-N'-(4-[(6,7-dimethoxy-4-quinolyl)oxy]phenyl}urea]: in assay [2], the half-inhibitory concentration (IC50) is 29 nM.
Take `COc1cc2nccc(Oc3ccc(NC(=O)Nc4ccccc4O)cc3)c2cc1OC` [Compound 281, N-(2-Hydroxyphenyl)-N'-{4-[(6,7-dimethoxy-4-quinolyl)oxy]phenyl}urea]: in assay [2], the concentration for half-maximal inhibition (IC50) was 12 nM.
With `COc1cc2nccc(Oc3ccc(NC(=O)Nc4cccc(O)c4)cc3)c2cc1OC` [Compound 282, N-(3-Hydroxyphenyl)-N'-{4-[(6,7-dimethoxy-4-quinolyl)oxy]phenyl}urea], the IC50 in assay [2] is 8 nM.
Compound `COc1cc2nccc(Oc3ccc(NC(=O)Nc4cccc(C(=O)O)c4)cc3)c2cc1OC` [Compound 283, N-(3-Hydroxycarbonylphenyl)-N'-{4-[(6,7-dimethoxy-4-quinolyl)oxy]phenyl}urea] came in with an IC50 in assay [2] of 2 nM.
In assay [2], `COc1cc2nccc(Oc3ccc(C(=O)c4ccc(N5CCOCC5)cc4)cc3)c2cc1OC` [Compound 288, {4-[(6,7-Dimethoxy-4-quinolyl)oxy]phenyl}[4-morpholinophenyl]methanone] showed a 50% inhibitory concentration (IC50) of 24 nM.
In assay [2], `COc1cc2nccc(Oc3ccc(C(=O)c4ccc(N5CCCC5)cc4)cc3)c2cc1OC` [Compound 289, (4-[{6,7-Dimethoxy-4-quinolyl)oxy]phenyl)[4-pyrrolidinophenyl]methanone] had a half-maximal inhibitory concentration (IC50) of 32 nM.
Consider `COc1cc2nccc(Oc3ccc(C(=O)c4ccc(N5CCCCC5)cc4)cc3)c2cc1OC` [Compound 290, {4-[(6,7-Dimethoxy-4-quinolyl)oxy]phenyl}[4-piperidinophenyl]methanone], for which the 50% inhibitory concentration (IC50) in assay [2] was found to be 55 nM.
The compound “N-(2-Chloro-3-methylphenyl)-N'-{4-[(6,7-dimethoxy-4-quinolyl)oxy]phenyl}urea [Compound 243]” had a 50% inhibitory concentration (IC50) in assay [2] of 14 nM.
